Test system: breast cancer cells
Experiment: In vitro bioactivity analysis: killing of cancer cells by minimal MTT method
Type: cell-based
Conditions: culture medium RPMI-1640 containing 2% calf serum, compared with paclitaxel standard sample
Excerpt: FIG. 10 is the chart of the effects of paclitaxel sample made by the method of present invention and standard paclitaxel sample on the killing percentage against […] cells by minimal MTT method by the use of culture medium RPMI-1640 containing 2% calf serum.
In vitro bioactivity analysis of the fermented paclitaxel show high efficacy on killing breast cancer cells.

Q: Which results are given for `CC(=O)O[C@H]1C(=O)[C@@]2(C)[C@H]([C@H](OC(=O)c3ccccc3)[C@]3(O)C[C@H](OC(=O)[C@H](O)[C@@H](NC(=O)c4ccccc4)c4ccccc4)C(C)=C1C3(C)C)[C@]1(OC(C)=O)CO[C@@H]1C[C@@H]2O` [fermented paclitaxel, 5β, 20-epoxy-1,2α,4,7β 10β 13α-hexahydroxy-tax-11-en-9-one-4,10-diacetate-2-benzoate-13-ester with (2R, 3S)-N-benzoyl-3-phenyl isoserine]?
A: efficacy on killing breast cancer cells (killing percentage, FIG. 10): high efficacy; efficacy on killing breast cancer cells (killing percentage, FIG. 10) (listed as paclitaxel from Examples 20-24): same effects as paclitaxel standard samples

From patent US20070218531A1, “Micro-Organism and a Method of Producing Paclitaxel by the Use of the Same” (HAIYI BIOTECH PTE LTD, priority 2004, published 2007)
